# Data taken from patent US20230118152A1, “FORMS OF 5-({[2-AMINO-3-(4-CARBAMOYL-2,6-DIMETHYL-PHENYL)-PROPIONYL]-[1-(4-PHENYL-1H-IMIDAZOL-2-YL)-ETHYL]-AMINO}-METHYL)-2-METHOXY-BENZOIC ACID” (Allergan Holdings Unlimited Company, priority 2020, published 2023).
# Experiment: Slurry experiments in water (physical form stability)
# Format: physicochemical
# Protocol: Form H3 may be formed by slurrying Form A in water. Form H3 may convert back to Form A with some minor amorphous contents within some time, and completely convert to amorphous phase upon further slurrying within further time.
# Form H3 was prepared by slurry of Form A in water upon stirring. Form H3 converted back to Form A with some minor amorphous content within 2 days, and completely converted to amorphous phase upon slurry within 8 days. After additional 7 days (i.e. day 15 of slurry experiments), the amorphous phase converted further to Form D (tetrahydrate) with high crystallinity.
SMILES,time for complete conversion to amorphous phase (slurry in water upon stirring),time for conversion back to Form A with some minor amorphous content (slurry in water upon stirring),"solid form conversion when suspended in water (suspended in water, trihydrate form (H3) and tetrahydrate (Form D))"
"COc1ccc(CN(C(=O)C(N)Cc2c(C)cc(C(N)=O)cc2C)C(C)c2nc(-c3ccccc3)c[nH]2)cc1C(=O)O (stereo not drawn) [Form H3, 5-({[2-amino-3-(4-carbamoyl-2,6-dimethyl-phenyl)-propionyl]-[1-(4-phenyl-1H-imidazol-2-yl)-ethyl]-amino}-methyl)-2-methoxy-benzoic acid]",≤ 8 days,≤ 2 days,–
"COc1ccc(CN(C(=O)C(N)Cc2c(C)cc(C(N)=O)cc2C)C(C)c2nc(-c3ccccc3)c[nH]2)cc1C(=O)O (stereo not drawn) [Form A, 5-({[2-Amino-3-(4-carbamoyl-2,6-dimethyl-phenyl)-propionyl]-[1-(4-phenyl-1H-imidazol-2-yl)-ethyl]-amino}-methyl)-2-methoxy-benzoic acid]",–,–,converts to hydrated crystalline forms
